Data on 4 molecules can be found in ChEMBL document CHEMBL2074562, “Substrate specificity of the rat liver Na(+)-bile salt cotransporter in Xenopus laevis oocytes and in CHO cells” (Am J Physiol, 1998).

Assay type in all cases: functional, cell-based
Conditions in all cases: hamster

In data set [1] the target is T1, Hepatic sodium/bile acid cotransporter (Rattus norvegicus, UniProt P26435).
T1 sequence (P26435 whole entry): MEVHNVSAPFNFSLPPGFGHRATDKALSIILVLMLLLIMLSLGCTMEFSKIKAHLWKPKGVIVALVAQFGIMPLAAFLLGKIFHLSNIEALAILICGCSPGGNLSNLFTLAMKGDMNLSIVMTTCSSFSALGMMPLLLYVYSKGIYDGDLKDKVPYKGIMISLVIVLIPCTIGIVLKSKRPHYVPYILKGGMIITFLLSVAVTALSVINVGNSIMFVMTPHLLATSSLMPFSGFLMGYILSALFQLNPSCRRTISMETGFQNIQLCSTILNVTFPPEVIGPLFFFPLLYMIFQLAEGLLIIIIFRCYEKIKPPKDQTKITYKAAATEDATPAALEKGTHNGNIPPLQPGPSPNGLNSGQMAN
Put plainly: TP_TRANSPORTER: inhibition of Taurocholate uptake (Taurocholate: 2.5 uM, E1S: 200 uM) in Ntcp-expressing CHO cells.

The target of data set [2] is T1, Hepatic sodium/bile acid cotransporter. Put plainly: TP_TRANSPORTER: inhibition of Taurocholate uptake (Taurocholate: 2.5 uM, Testosterone: 200 uM) in Ntcp-expressing CHO cells.
For data set [3] the target is unchanged. The experiment in a line: TP_TRANSPORTER: inhibition of Taurocholate uptake (Taurocholate: 2.5 uM, Progesterone: 200 uM) in Ntcp-expressing CHO cells.
The target is the same in data set [4]. The experiment in a line: TP_TRANSPORTER: inhibition of Taurocholate uptake (Taurocholate: 2.5 uM, Estradiol-3-sulfate: 68 uM) in Ntcp-expressing CHO cells.

As for `C[C@]12CC[C@@H]3c4ccc(OS(=O)(=O)O)cc4CC[C@H]3[C@@H]1CCC2=O` [ESTRONE SULFURIC ACID], in data set [1], the Activity result was “inhibitor [(at a rough estmate) 30 % of control]”. As for `C[C@]12CC[C@H]3[C@@H](CCC4=CC(=O)CC[C@@]43C)[C@@H]1CC[C@@H]2O` [TESTOSTERONE], in data set [2], the Activity result is “inhibitor [(at a rough estmate) 50 % of control]”.

For `CC(=O)[C@H]1CC[C@H]2[C@@H]3CCC4=CC(=O)CC[C@]4(C)[C@H]3CC[C@]12C` [PROGESTERONE], the Activity result in data set [3] was “inhibitor [(at a rough estmate) 70 % of control]”. For the molecule `C[C@]12CC[C@@H]3c4ccc(OS(=O)(=O)O)cc4CC[C@H]3[C@@H]1CC[C@@H]2O`, the Activity result in data set [4] was “inhibitor [(at a rough estmate) 5 % of control]”.
